Results taken from patent US20220227773A1, “FUSED RING COMPOUND, PREPARATION METHOD THEREFOR AND USE THEREOF” (SHANGHAI INSTITUTE OF MATERIA MEDICA, CHINESE ACADEMY OF …, priority 2019, published 2022).
Where a name gives a salt, the structure may show the parent alone. Read-outs that look alike come from different tables or passages of the source.

What was measured:
[1] = system: mice; assay: Forced swimming test (FST) in mice; type: in vivo; details: Mus musculus
Procedure: 3. In Vivo Drug Efficacy Test (Mouse Forced Swimming Model)
Experimental animals: C57BL/6 mice (Shanghai Xipuer-Bikai Experimental Animal Co., Ltd.), male, 6 weeks old, weighing 15-20 g. ICR mice (Shanghai Xipuer-Bikai Experimental Animal Co., Ltd.), male, 6 weeks old, weighing 20-25 g. All the ordered mice were fed in a standard environment for 2-3 weeks before test.
Forced Swimming Test (FST): in the forced swimming apparatus, the water level is 45 cm, and the water temperature is 25° C. Before the experiment, the mice were placed in the experimental room for 1 h for adapting to the environment. At the beginning of the experiment, the mice were placed in the apparatus for 6min, and the whole process was recorded with a camera. When analyzing the data, only the immobility time of the mice in the last 4 min was counted, and the result was expressed by mean±SD.
The results were analyzed by one-way analysis of variance. […] FST: Forced swimming test; TST: Tail suspension test.

[2] = molecular target: T1, hSERT (5-HTT) in HEK293-hSERT cells (Homo sapiens, UniProt P31645); assay: 5-HTT reuptake activity assay (fluorescence neurotransmitter transporter uptake kit); type: cell-based; details: serotonin reuptake inhibition
T1 construct: expressed in transfected cells; host or cells: HEK293
T1 sequence (P31645 whole entry): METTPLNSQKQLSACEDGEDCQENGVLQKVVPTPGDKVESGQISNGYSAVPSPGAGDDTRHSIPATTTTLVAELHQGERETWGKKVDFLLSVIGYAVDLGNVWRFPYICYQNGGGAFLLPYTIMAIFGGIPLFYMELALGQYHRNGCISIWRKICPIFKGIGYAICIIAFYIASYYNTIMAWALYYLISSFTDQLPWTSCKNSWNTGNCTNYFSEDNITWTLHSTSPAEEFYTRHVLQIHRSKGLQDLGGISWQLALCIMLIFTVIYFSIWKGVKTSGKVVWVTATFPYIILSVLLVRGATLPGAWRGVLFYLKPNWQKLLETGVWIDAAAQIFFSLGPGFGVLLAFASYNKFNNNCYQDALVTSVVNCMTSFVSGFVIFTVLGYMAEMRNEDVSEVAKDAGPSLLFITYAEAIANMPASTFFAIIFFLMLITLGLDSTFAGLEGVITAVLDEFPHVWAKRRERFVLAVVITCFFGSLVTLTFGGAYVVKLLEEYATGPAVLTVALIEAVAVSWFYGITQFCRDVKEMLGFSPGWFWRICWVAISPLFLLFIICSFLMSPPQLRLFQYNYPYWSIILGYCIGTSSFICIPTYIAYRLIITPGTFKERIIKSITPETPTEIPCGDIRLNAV

[3] = molecular target: T2, human recombinant 5-HT3 receptor (Homo sapiens, UniProt P46098); assay: 5-HT3 receptor affinity assay (3H-BRL 43694 radioligand binding); details: read-out: inhibition (%) at 1 μM
T2 construct: expressed in transfected cells; host or cells: HEK293 (membrane preparation)
T2 sequence (P46098 24-478): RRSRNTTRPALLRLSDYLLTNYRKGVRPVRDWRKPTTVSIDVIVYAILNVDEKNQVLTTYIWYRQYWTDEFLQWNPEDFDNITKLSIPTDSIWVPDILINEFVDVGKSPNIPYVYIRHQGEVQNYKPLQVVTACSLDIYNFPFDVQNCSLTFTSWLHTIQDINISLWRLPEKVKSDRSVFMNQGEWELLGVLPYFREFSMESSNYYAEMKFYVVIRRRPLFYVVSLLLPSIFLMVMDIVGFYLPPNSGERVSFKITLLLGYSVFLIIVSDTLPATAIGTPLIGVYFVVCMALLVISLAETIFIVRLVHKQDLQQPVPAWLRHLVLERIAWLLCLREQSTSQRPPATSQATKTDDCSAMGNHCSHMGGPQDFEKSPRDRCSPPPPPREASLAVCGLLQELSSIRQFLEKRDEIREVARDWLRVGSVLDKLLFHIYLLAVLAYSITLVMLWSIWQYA

[4] = po, FST, dose significantly reducing immobility time of mice, read-out: Effective dose
[5] = po, read-out: Effective dose (mg/kg)
[6] = 1 μM compound, 0.5 nM 3H-BRL 43694, HEK293 membranes
[7] = ip, read-out: Effective dose (mg/kg)

With `CN(C)CCCC1(c2ccc(F)cc2)OCc2cc(C#N)ccc21` (centres unmarked) [Citalopram, reference compound] the minimal effective dose [1, 4] was 20 mg/kg.
Compound `CNCC[C@H](Oc1cccc2ccccc12)c1cccs1` [Duloxetine, reference compound] has a minimal effective dose [1, 5] of 20 mg/kg.
For `c1ccc2cc(N3CC4CNCC4C3)ccc2c1` (centres unmarked) [Example 1, 2-(naphthalen-2-yl)octahydropyrrolo[3,4-c]pyrrole], the IC50 [2] was under 10 nM, the inhibition at 1 µM [3] was 106% and the minimal effective dose [1, 5] was 5 mg/kg.
For `CN1CC2CN(c3ccc4ccccc4c3)CC2C1` (centres unmarked) [Example 2, 2-methyl-5-(naphthalen-2-yl)octahydropyrrolo[3,4-c]pyrrole], the IC50 [2] was under 10 nM, the inhibition at 1 µM [3, 6] was 97% and the minimal effective dose [1, 5] was 5 mg/kg.
`O=C(O)/C=C\C(=O)O.c1cc2ccc(N3CC4CNCC4C3)cc2s1` (centres unmarked) [Example 19, 2-(Benzo[b]thiophen-6-yl)octahydropyrrolo[3,4-c]pyrrole maleate] showed an IC50 [2] of under 10 nM and a minimal effective dose [1, 7] of 10 mg/kg.
In the case of `O=C(O)/C=C\C(=O)O.c1cc2cc(N3CC4CNCC4C3)ccc2o1` (centres unmarked) [Example 21, 2-(Benzofuran-5-yl)octahydropyrrolo[3,4-c]pyrrole maleate], the IC50 [2] is reported as under 50 nM and the minimal effective dose [1, 7] is reported as 3 mg/kg.
`CN1CC2CN(c3cccc4ccccc34)CC2C1` (centres unmarked) [Example 26, 2-methyl-5-(naphthalen-1-yl)octahydropyrrolo[3,4-c]pyrrole oxalate] gave an IC50 [2] of under 200 nM and an inhibition at 1 µM [3, 6] of 76%.
Work on `Clc1cccc(N2CC3CNCC3C2)c1Cl` (centres unmarked) [Example 27, 2-(2,3-dichlorophenyl)octahydropyrrolo[3,4-c]pyrrole maleate] yielded an IC50 [2] of under 50 nM and an inhibition at 1 µM [3] of 104%.
`Fc1ccc2cc(N3CC4CNCC4C3)ccc2c1.O=C(O)/C=C\C(=O)O` (centres unmarked) [Example 29, 2-(6-fluoronaphthalen-2-yl)octahydropyrrolo[3,4-c]pyrrole maleate] gave an IC50 [2] of under 10 nM and a minimal effective dose [1, 4] of 5 mg/kg.
With `CN1CC2CN(c3ccc4cc(F)ccc4c3)CC2C1.O=C(O)/C=C\C(=O)O` (centres unmarked) [Example 30, 2-(6-fluoronaphthalen-2-yl)-5-methyloctahydropyrrolo[3,4-c]pyrrole maleate] the IC50 [2] was under 10 nM and the minimal effective dose [1, 4] was 20 mg/kg.
In the case of `Clc1ccc(N2CC3CCNCCC3C2)cc1Cl` (centres unmarked) [Example 42, 2-(3,4-dichlorophenyl)decahydropyrrolo[3,4-d]azepine maleate], the IC50 [2] is reported as under 10 nM and the inhibition at 1 µM [3] is reported as 103%.
`Fc1cc(N2CC3CNCC3C2)c2ccsc2c1` (centres unmarked) [Example 69, 2-(6-fluorobenzothiophen-4-yl)octahydropyrrolo[3,4-c]pyrrole dihydrochloride] was tested, and the IC50 [2] was under 200 nM and the minimal effective dose [1, 7] was 10 mg/kg.
`CN1CC2C=C(c3cccc4ccccc34)CC2C1` (centres unmarked) [Example 71, 2-methyl-5-(naphthalen-1-yl)-1,2,3,3a,4,6a-hexahydrocyclopenta[c]pyrrole] was tested, and the IC50 [2] was under 50 nM.
For `CN1CC2CN(c3c(F)cc4ccccc4c3F)CC2C1` (centres unmarked) [Example 75, 2-(1,3-difluoronaphthalen-2-yl)-5-methyloctahydropyrrolo[3,4-c]pyrrole dihydrochloride], the IC50 [2] was under 100 nM.
Compound `CN1CC2CN(c3cc4ccccc4cc3F)CC2C1` (centres unmarked) [Example 76, 2-(3-fluoronaphthalen-2-yl)-5-methyloctahydropyrrolo [3,4-c]pyrrole dihydrochloride] has an IC50 [2] of under 50 nM.
`CN1CC2CN(c3ccc(C(F)(F)F)cc3)CC2C1.O=C(O)C(=O)O` (centres unmarked) [Example 81, 2-methyl-5-(4-(trifluoromethyl)phenyl)octahydropyrrolo[3,4-c]pyrrole oxalate] was tested, and the IC50 [2] was under 50 nM and the minimal effective dose [1, 7] was 10 mg/kg.
`Clc1ccc(N2CCC3CNCC3CC2)c(Cl)c1` (centres unmarked) [Example 90, 6-(2,4-dichlorophenyl)decahydropyrrolo[3,4-d]azepine hydrochloride] was tested, and the IC50 [2] was under 50 nM.
Compound `CN1CC2CN(c3cccc4c3CCC(=O)N4)CC2C1` (centres unmarked) [Example 93, 5-(5-methylhexahydropyrrolo[3,4-c]pyrrol-2(1H)-yl)-3,4-dihydroquinolin-2(1H)-one dihydrochloride] has an IC50 [2] of under 200 nM.
`CN1[C@@H]2CC[C@H]1C[C@@H](OC(=O)c1cc(Cl)cc(Cl)c1)C2` [MDL72222, reference compound] showed an inhibition at 1 µM [3] of 93%.
